Source: US10035801B2, “Pyrazolo compounds and uses thereof” (CONSTELLATION PHARMACEUTICALS, INC., priority 2013, dated 2018)
pIC50: −log10 of the molar value.

Each molecule was assayed against T1, KDM5A (Homo sapiens, UniProt P29375) (assay: KDM5 enzyme assay, KDM5A HTRF (Example 463)). Settings: not given.
T1 construct: Full length KDM5A enzyme was expressed and purified inhouse; made in house
Type: biochemical

T1 sequence (P29375 whole entry): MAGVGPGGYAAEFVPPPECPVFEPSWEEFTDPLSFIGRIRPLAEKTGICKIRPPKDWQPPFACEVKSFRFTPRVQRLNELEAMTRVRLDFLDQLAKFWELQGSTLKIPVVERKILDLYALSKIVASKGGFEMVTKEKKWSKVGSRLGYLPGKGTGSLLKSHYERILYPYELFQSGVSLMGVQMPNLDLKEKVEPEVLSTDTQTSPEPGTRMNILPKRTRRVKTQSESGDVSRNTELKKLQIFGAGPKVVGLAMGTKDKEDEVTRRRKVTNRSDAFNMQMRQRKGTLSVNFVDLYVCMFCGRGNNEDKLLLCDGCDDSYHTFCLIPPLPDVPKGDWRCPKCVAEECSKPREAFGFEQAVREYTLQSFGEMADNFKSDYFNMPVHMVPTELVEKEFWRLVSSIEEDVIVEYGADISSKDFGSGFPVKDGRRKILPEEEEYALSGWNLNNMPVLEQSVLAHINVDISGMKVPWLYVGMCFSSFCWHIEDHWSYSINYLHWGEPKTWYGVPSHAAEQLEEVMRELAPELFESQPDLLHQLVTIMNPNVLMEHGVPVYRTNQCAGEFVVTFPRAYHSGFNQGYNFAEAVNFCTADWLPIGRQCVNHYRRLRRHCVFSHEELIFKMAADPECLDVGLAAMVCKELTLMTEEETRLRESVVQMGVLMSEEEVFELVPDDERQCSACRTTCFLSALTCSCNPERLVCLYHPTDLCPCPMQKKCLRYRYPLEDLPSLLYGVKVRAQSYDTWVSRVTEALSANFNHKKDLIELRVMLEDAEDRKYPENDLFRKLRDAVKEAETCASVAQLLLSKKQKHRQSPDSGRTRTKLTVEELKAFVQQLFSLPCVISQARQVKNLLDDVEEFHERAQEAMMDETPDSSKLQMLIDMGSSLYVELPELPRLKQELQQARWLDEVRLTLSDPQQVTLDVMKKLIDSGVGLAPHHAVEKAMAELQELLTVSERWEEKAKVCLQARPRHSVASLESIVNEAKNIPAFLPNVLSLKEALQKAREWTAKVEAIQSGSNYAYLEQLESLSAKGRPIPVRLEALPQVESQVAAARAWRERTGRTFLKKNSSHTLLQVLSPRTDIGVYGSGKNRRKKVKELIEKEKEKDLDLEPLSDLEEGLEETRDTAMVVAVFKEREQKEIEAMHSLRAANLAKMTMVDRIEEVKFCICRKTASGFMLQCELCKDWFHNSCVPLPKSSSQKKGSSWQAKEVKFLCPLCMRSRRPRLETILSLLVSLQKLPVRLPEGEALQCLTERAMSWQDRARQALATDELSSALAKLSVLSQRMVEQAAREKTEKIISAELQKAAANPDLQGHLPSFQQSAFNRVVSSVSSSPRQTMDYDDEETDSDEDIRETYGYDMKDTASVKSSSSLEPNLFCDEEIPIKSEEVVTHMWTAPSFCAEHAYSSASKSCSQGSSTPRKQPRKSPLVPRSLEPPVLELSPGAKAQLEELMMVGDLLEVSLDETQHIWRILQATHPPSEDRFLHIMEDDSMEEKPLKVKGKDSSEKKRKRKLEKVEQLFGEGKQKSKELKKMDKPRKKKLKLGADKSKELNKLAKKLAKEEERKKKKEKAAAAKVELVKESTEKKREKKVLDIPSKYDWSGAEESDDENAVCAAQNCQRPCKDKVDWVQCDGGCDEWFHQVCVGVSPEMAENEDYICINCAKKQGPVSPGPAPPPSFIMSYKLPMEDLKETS

Structure (SMILES)	pIC50
CC(C)c1c(-c2cccnc2)[nH]c2c(C#N)cnn2c1=O [Example 91]	7.92

Same assay, conditions: compounds of Examples 1-432; read-out: Example 463 Assay KDM5A HTRF IC50

Structure (SMILES)	pIC50
CCc1c(-c2cnn(Cc3ccccc3)c2)[nH]c2c(C#N)cnn2c1=O [Example 71]	8.35
C=C(C)c1[nH]c2c(C#N)cnn2c(=O)c1C(C)C [Example 75]	8.00
C=Cc1[nH]c2c(C#N)cnn2c(=O)c1C(C)C [Example 76]	8.22
CCc1c(-c2cn[nH]c2)[nH]c2c(C#N)cnn2c1=O [Example 92]	8.26
CC(C)c1c(-c2cnn(C3CCCC3)c2)[nH]c2c(C#N)cnn2c1=O [Example 94]	7.92
CC(C)c1c(-c2ccc(Cl)c(C(=O)N3CCOCC3)c2)[nH]c2c(C#N)cnn2c1=O [Example 96]	7.47
CC(C)c1c(-c2ccc(C(=O)NC3CCCC3)c(Cl)c2)[nH]c2c(C#N)cnn2c1=O [Example 97]	7.42
CC(C)c1c(-c2cnn(C(C)(C)CO)c2)[nH]c2c(C#N)cnn2c1=O [Example 98]	7.43
CC(C)c1c(-c2cnn(Cc3cccc(Oc4ccccc4)c3)c2)[nH]c2c(C#N)cnn2c1=O [Example 102]	8.00
CC(C)c1c(-c2cnn(Cc3ccc(Oc4ccccc4)cc3)c2)[nH]c2c(C#N)cnn2c1=O [Example 103]	8.26
CC(C)c1c(-c2cnn(C3CCCCC3)c2)[nH]c2c(C#N)cnn2c1=O [Example 104]	7.68
CC(C)c1c(-c2cnn(C3CCC3)c2)[nH]c2c(C#N)cnn2c1=O [Example 106]	7.74
CC(C)c1c(-c2ccc(F)c(C(=O)N3CCCC3)c2)[nH]c2c(C#N)cnn2c1=O [Example 108]	7.55
CC(C)c1c(-c2ccn(S(=O)(=O)C3CC3)n2)[nH]c2c(C#N)cnn2c1=O [Example 109]	7.96
CC(C)c1c(-c2ccn(C(=O)C3CC3)n2)[nH]c2c(C#N)cnn2c1=O [Example 110]	8.15
CC(C)c1c(-c2cnn(CCC3CC3)c2)[nH]c2c(C#N)cnn2c1=O [Example 111]	7.82
COC(=O)c1c(-c2ccccc2)[nH]c2c(C#N)cnn2c1=O [Example 112]	6.48
CC(C)c1c(-c2cnn(Cc3cccc(-c4ccccc4)c3)c2)[nH]c2c(C#N)cnn2c1=O [Example 113]	8.22
CC(C)c1c(-c2cnn(CCc3ccccc3)c2)[nH]c2c(C#N)cnn2c1=O [Example 114]	8.26
CC(C)c1c(-c2cnn(Cc3ccccc3Oc3ccccc3)c2)[nH]c2c(C#N)cnn2c1=O [Example 122]	7.89
CC(C)c1c(-c2cnn(S(=O)(=O)c3ccccc3)c2)[nH]c2c(C#N)cnn2c1=O [Example 123]	8.10
CC(C)c1c(-c2cnn(C(c3ccccc3)c3ccccc3)c2)[nH]c2c(C#N)cnn2c1=O [Example 125]	7.52
CC(C)c1c(-c2cnn(Cc3ccccc3-c3ccccc3)c2)[nH]c2c(C#N)cnn2c1=O [Example 126]	8.10
CC(C)c1c(-c2cnn(CC3CCCCC3)c2)[nH]c2c(C#N)cnn2c1=O [Example 127]	7.89
CC(C)c1c(-c2cnn(Cc3cccnc3)c2)[nH]c2c(C#N)cnn2c1=O [Example 128]	7.80
C=Cc1c(-c2ccccc2)[nH]c2c(C#N)cnn2c1=O [Example 129]	7.64
CC(C)c1c(/C=C/c2ccccc2)[nH]c2c(C#N)cnn2c1=O [Example 131]	7.74

More lines, now with the values ahead:

pIC50	Structure (SMILES)
7.89	COc1ccc(-c2[nH]c3c(C#N)cnn3c(=O)c2C(C)C)cc1 [Example 68]
7.68	CC(C)c1c(-c2ccc(C(F)(F)F)cc2)[nH]c2c(C#N)cnn2c1=O [Example 69]
8.11	CC(C)c1c(-c2ccc(F)cc2)[nH]c2c(C#N)cnn2c1=O [Example 70]
8.00	CC(C)c1c(-c2cnn(Cc3ccccc3)c2)[nH]c2c(C#N)cnn2c1=O [Example 72]
8.14	CC(C)c1c(-c2cncc(Cl)c2)[nH]c2c(C#N)cnn2c1=O [Example 73]
8.40	CC(C)c1c(-c2cncc(F)c2)[nH]c2c(C#N)cnn2c1=O [Example 74]
7.92	CC(C)c1c(-c2ccnn2C)[nH]c2c(C#N)cnn2c1=O [Example 77]
8.11	CC(C)c1c(-c2cc(CO)co2)[nH]c2c(C#N)cnn2c1=O [Example 78]
7.89	CC(C)c1c(-c2cccc(C#N)c2)[nH]c2c(C#N)cnn2c1=O [Example 79]
8.17	CC(C)c1c(-c2ccn[nH]2)[nH]c2c(C#N)cnn2c1=O [Example 80]
8.19	CC(C)c1c(-c2ccco2)[nH]c2c(C#N)cnn2c1=O [Example 81]
7.92	CC(C)c1c(C2=CCOC2)[nH]c2c(C#N)cnn2c1=O [Example 82]
7.92	CC(C)c1c(-c2ccsc2)[nH]c2c(C#N)cnn2c1=O [Example 83]
8.08	CC(C)c1c(-c2cccs2)[nH]c2c(C#N)cnn2c1=O [Example 84]
7.92	CC(C)c1c(-c2cnn(C)c2)[nH]c2c(C#N)cnn2c1=O [Example 85]
8.35	Cc1ccc(-c2[nH]c3c(C#N)cnn3c(=O)c2C(C)C)o1 [Example 86]
8.12	CC(C)c1c(-c2ccc(CO)o2)[nH]c2c(C#N)cnn2c1=O [Example 87]
7.85	CC(C)c1c(-c2cccc(C(F)(F)F)c2)[nH]c2c(C#N)cnn2c1=O [Example 88]

pIC50	Structure (SMILES)
8.00	COc1cccc(-c2[nH]c3c(C#N)cnn3c(=O)c2C(C)C)c1 [Example 89]
8.05	CC(C)c1c(-c2cccc(F)c2)[nH]c2c(C#N)cnn2c1=O [Example 90]
7.89	CC(C)c1c(-c2cnn(S(C)(=O)=O)c2)[nH]c2c(C#N)cnn2c1=O [Example 93]
7.96	CC(C)c1c(-c2cnn(Cc3ccsc3)c2)[nH]c2c(C#N)cnn2c1=O [Example 95]
8.22	COc1cccc(Cn2cc(-c3[nH]c4c(C#N)cnn4c(=O)c3C(C)C)cn2)c1 [Example 99]
8.10	CC(C)c1c(-c2cnn(Cc3ccncc3)c2)[nH]c2c(C#N)cnn2c1=O [Example 100]
8.07	CC(C)c1c(-c2cnn(Cc3ccccc3Cl)c2)[nH]c2c(C#N)cnn2c1=O [Example 101]
8.10	CC(C)c1c(-c2cnn(C(C)c3ccccc3)c2)[nH]c2c(C#N)cnn2c1=O (stereo not shown) [Example 105]
7.72	CCC(C)n1cc(-c2[nH]c3c(C#N)cnn3c(=O)c2C(C)C)cn1 (stereo not shown) [Example 107]
8.22	COc1ccccc1Cn1cc(-c2[nH]c3c(C#N)cnn3c(=O)c2C(C)C)cn1 [Example 115]
8.10	COc1ccc(Cn2cc(-c3[nH]c4c(C#N)cnn4c(=O)c3C(C)C)cn2)cc1 [Example 116]
7.85	CC(C)c1c(-c2cnn(C(C)(C)C)c2)[nH]c2c(C#N)cnn2c1=O [Example 117]
7.82	Cc1ccc(-c2[nH]c3c(C#N)cnn3c(=O)c2C(C)C)cc1C [Example 118]
7.72	CCOc1ccc(-c2[nH]c3c(C#N)cnn3c(=O)c2C(C)C)cc1Cl [Example 119]
7.72	COc1ccc(-c2[nH]c3c(C#N)cnn3c(=O)c2C(C)C)cc1C [Example 120]
8.00	Cc1nc2cc(-c3[nH]c4c(C#N)cnn4c(=O)c3C(C)C)ccc2s1 [Example 121]
7.96	CC(C)c1c(-c2cnn(C(=O)c3ccccc3)c2)[nH]c2c(C#N)cnn2c1=O [Example 124]
8.35	CC(C)c1c(-c2cc3ccccc3o2)[nH]c2c(C#N)cnn2c1=O [Example 130]
